From PubChem BioAssay (NCI)
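Exposure lasted 48 hours, with cells grown in 96-well plates and compounds tested at five concentrations. GI50 = concentration required for 50% inhibition of growth. TGI denotes the concentration required for complete inhibition of growth.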

Tests used:
Experiment in all cases: growth of human tumour cells (NCI), 48 h
[1] = test system: HS 578T breast
[2] = test system: HCT-116 colon
[3] = test system: SF-295 CNS
[4] = test system: U251 CNS
[5] = test system: NCI-H460 lung
[6] = test system: CCRF-CEM leukemia
[7] = test system: MDA-MB-435
[8] = test system: HCT-15 colon
[9] = test system: RXF 393 renal
[10] = test system: SR leukemia
[11] = test system: UACC-257 melanoma
[12] = test system: MDA-MB-468 breast
[13] = test system: IGROV1 ovarian
[14] = test system: SK-MEL-2 melanoma
[15] = test system: MOLT-4 leukemia
[16] = test system: RPMI-8226 leukemia
[17] = test system: HT29 colon
[18] = test system: HCC-2998 colon
[19] = test system: SNB-19 CNS
[20] = test system: SNB-75 CNS
[21] = test system: T-47D breast
[22] = test system: CAKI-1 renal
[23] = test system: K-562 leukemia
[24] = test system: TK-10 renal
[25] = test system: 786-0 renal
[26] = test system: OVCAR-3 ovarian
[27] = test system: SK-OV-3 ovarian
[28] = test system: COLO 205 colon
[29] = test system: UACC-62 melanoma
[30] = test system: OVCAR-8 ovarian
[31] = test system: SN12C renal
[32] = test system: HL-60(TB) leukemia
[33] = test system: OVCAR-5 ovarian
[34] = test system: SW-620 colon
[35] = test system: SF-268 CNS
[36] = test system: EKVX NSCLC
[37] = test system: A498 renal
[38] = test system: PC-3 prostate
[39] = test system: DU-145 prostate
[40] = test system: OVCAR-4 ovarian
[41] = test system: MDA-MB-231 breast
[42] = test system: NCI-H522 lung
[43] = test system: NCI-H226 lung
[44] = test system: NCI-H23 lung
[45] = test system: KM12 colon
[46] = test system: A549 NSCLC
[47] = test system: HOP-62 NSCLC
[48] = test system: MALME-3M melanoma
[49] = test system: SK-MEL-5 melanoma
[50] = test system: SK-MEL-28 melanoma
[51] = test system: HOP-92 NSCLC
[52] = test system: UO-31 renal
[53] = test system: SF-539 CNS
[54] = test system: M14 melanoma
[55] = test system: LOX IMVI melanoma
[56] = test system: MCF7 breast
[57] = test system: BT-549 breast
[58] = test system: ACHN renal

N#CC1=C(c2cccs2)Nc2c(c(-c3ccccc3)nn2-c2ccccc2)C12C(=O)Nc1ccccc12 (stereo unspecified) gave a GI50 [1] of 14.4 µM, a TGI [1] of 44.9 µM and a GI50 [2] of 11.9 µM. It also gave a TGI [2] of 28.1 µM, a GI50 [3] of 12.8 µM and a TGI [3] of 33.3 µM. It also gave a GI50 [4] of 6.23 µM, a TGI [4] of 20.6 µM and a GI50 [5] of 11.3 µM. It also gave a TGI [5] of 24.1 µM, a GI50 [6] of 7.52 µM and a TGI [6] of 46.8 µM. The GI50 [7] was 17.8 µM, the TGI [7] was 37.2 µM and the GI50 [8] was 8.92 µM. For the same compound, the TGI [8] was 24 µM, the GI50 [9] was 4.91 µM and the TGI [9] was 21.1 µM. For the same compound, the GI50 [10] was 12.7 µM, the TGI [10] was 58.1 µM and the GI50 [11] was 18.1 µM. The TGI [11] was 48.3 µM, the GI50 [12] was 11.4 µM and the TGI [12] was 32.4 µM. For the same compound, the GI50 [13] was 16.2 µM, the TGI [13] was 34.4 µM and the GI50 [14] was 15.8 µM. For the same compound, the TGI [14] was 38.3 µM, the GI50 [15] was 12 µM and the TGI [15] was 41.1 µM. It also gave a GI50 [16] of 8.6 µM, a TGI [16] of 83.7 µM and a GI50 [17] of 14 µM. For the same compound, the TGI [17] was 28.3 µM, the GI50 [18] was 14 µM and the TGI [18] was 35.6 µM. For the same compound, the GI50 [19] was 9.25 µM, the TGI [19] was > 100 µM and the GI50 [20] was 8.48 µM. The TGI [20] was 30.8 µM, the GI50 [21] was 18.2 µM and the TGI [21] was 69.2 µM. For the same compound, the GI50 [22] was 15.7 µM, the TGI [22] was 35 µM and the GI50 [23] was 6.17 µM. It also gave a TGI [23] of 38.9 µM, a GI50 [24] of 13.6 µM and a TGI [24] of 31.1 µM. It also gave a GI50 [25] of 15.6 µM, a TGI [25] of 31.1 µM and a GI50 [26] of 20.9 µM. The TGI [26] was 73.2 µM, the GI50 [27] was 13.7 µM and the TGI [27] was 33.2 µM. It also gave a GI50 [28] of 15.5 µM, a TGI [28] of 34.9 µM and a GI50 [29] of 13.7 µM. For the same compound, the TGI [29] was 27.9 µM, the GI50 [30] was 14.8 µM and the TGI [30] was 29.5 µM. The GI50 [31] was 19.6 µM, the TGI [31] was > 100 µM and the GI50 [32] was 5.75 µM. It also gave a TGI [32] of 45.6 µM, a GI50 [33] of 19.8 µM and a TGI [33] of 45.6 µM. It also gave a GI50 [34] of 9.57 µM, a TGI [34] of 28.6 µM and a GI50 [35] of 18.9 µM. The TGI [35] was > 100 µM, the GI50 [36] was 11.2 µM and the TGI [36] was 33.9 µM. The GI50 [37] was 17.8 µM, the TGI [37] was 35.3 µM and the GI50 [38] was 8.38 µM. For the same compound, the TGI [38] was 24.2 µM, the GI50 [39] was 20.3 µM and the TGI [39] was 46.6 µM. It also gave a GI50 [40] of 8.25 µM, a TGI [40] of 27 µM and a GI50 [41] of 16.4 µM. The TGI [41] was 33.8 µM, the GI50 [42] was 2.99 µM and the TGI [42] was 15.8 µM. For the same compound, the GI50 [43] was 16.9 µM, the TGI [43] was 42.5 µM and the GI50 [44] was 12.9 µM. For the same compound, the TGI [44] was 31.8 µM, the GI50 [45] was 5.13 µM and the TGI [45] was 20.4 µM. The GI50 [46] was 10.2 µM, the TGI [46] was 23 µM and the GI50 [47] was 17 µM. It also gave a TGI [47] of 44.1 µM, a GI50 [48] of 15.9 µM and a TGI [48] of 30 µM. For the same compound, the GI50 [49] was 13.7 µM, the TGI [49] was 29.4 µM and the GI50 [50] was 14.9 µM. For the same compound, the TGI [50] was 29.3 µM, the GI50 [51] was 3.52 µM and the TGI [51] was 15 µM. The GI50 [52] was 9.9 µM, the TGI [52] was > 100 µM and the GI50 [53] was 15.2 µM. The TGI [53] was 31.7 µM, the GI50 [54] was 15 µM and the TGI [54] was 32.7 µM. It also gave a GI50 [55] of 14.4 µM, a TGI [55] of 32.4 µM and a GI50 [56] of 12.8 µM. It also gave a TGI [56] of 26.5 µM, a GI50 [57] of 5.86 µM and a TGI [57] of 21 µM. For the same compound, the GI50 [58] was 12.6 µM and the TGI [58] was 26.4 µM.
